Each structure is given as a SMILES string. Starred links: 1 amine or outer side, 2 acyl side, 3 side chain; linkers in the order of their positions; H or OH if unused. Positions of bridges follow the written chain, without caps; N, C: chain ends. Non-standard residues stand in square brackets, D forms with d. Residues, ends and D or L forms follow the SMILES beside them. Adda = CO[C@@H](Cc1ccccc1)[C@@H](C)/C=C(C)/C=C/[C@H](N[*:1])[C@H](C)C(=O)[*:2]; dAsp(3S-Me) = C[C@H](C(=O)[*:3])[C@@H](N[*:1])C(=O)[*:2]; d(γGlu) = O=C(O)[C@@H](CCC(=O)[*:2])N[*:1]; NMeDha = C=C(NC)C(=O)O

The test system of one series is Hepatotoxicity. The series is described as follows: Human drug-induced liver injury (DILI) modelling dataset from Ekins et al.
Settings: not given
Take `COC(=O)C(c1ccccc1)C1CCCCN1` (stereo not given) [METHYLPHENIDATE]: the Hepatotoxicity entry is “DILI positive (test set)”.
`CC[C@@H](CO)NC(=O)[C@@H]1C=C2c3cccc4c3c(cn4C)C[C@H]2N(C)C1.O=C(O)/C=C\C(=O)O` [METHYSERGIDE MALEATE]: the Hepatotoxicity entry is “DILI negative (training set)”.
In the case of `Cc1ccccc1N1C(=O)c2cc(S(N)(=O)=O)c(Cl)cc2NC1C` (stereo not given) [METOLAZONE], the Hepatotoxicity entry is reported as “DILI positive (test set)”.
With `Cc1ncc([N+](=O)[O-])n1CCO` [METRONIDAZOLE], the Hepatotoxicity result was “DILI positive (training set)”.
Take `CN1CCN2c3ccccc3Cc3ccccc3C2C1` (stereo not given) [MIANSERIN]: the Hepatotoxicity result is given as “DILI positive (test set)”.
Consider `COCC(=O)O[C@]1(CCN(C)CCCc2nc3ccccc3[nH]2)CCc2cc(F)ccc2[C@@H]1C(C)C` [MIBEFRADIL], for which the Hepatotoxicity entry is reported as “DILI negative (test set)”.
Consider `Clc1ccc(COC(Cn2ccnc2)c2ccc(Cl)cc2Cl)c(Cl)c1` (stereo not given) [MICONAZOLE], for which the Hepatotoxicity result is given as “DILI negative (training set)”.
In the case of `C=C1C(=O)N[C@H](C)C(=O)N[C@@H](CC(C)C)C(=O)N[C@@H](C(=O)O)[C@H](C)C(=O)N[C@@H](CCCNC(=N)N)C(=O)N[C@@H](/C=C/C(C)=C/[C@H](C)[C@H](Cc2ccccc2)OC)[C@H](C)C(=O)N[C@@H](C(=O)O)CCC(=O)N1C` [MICROCYSTIN-LR] (R[Adda][d(γGlu)][NMeDha][dA]L[dAsp(3S-Me)]-OH; lactam N-7), the Hepatotoxicity result was “DILI positive (test set)”.
With `CN(C)c1ccc(O)c2c1C[C@H]1C[C@H]3[C@H](N(C)C)C(O)=C(C(N)=O)C(=O)[C@@]3(O)C(O)=C1C2=O.Cl` [MINOCYCLINE HYDROCHLORIDE], the Hepatotoxicity result is reported as “DILI positive (test set)”.
Turning to `Cl.Cl.O=C1c2c(O)ccc(O)c2C(=O)c2c(NCCNCCO)ccc(NCCNCCO)c21` [MITOXANTRONE HYDROCHLORIDE], the Hepatotoxicity result is “DILI positive (training set)”.
As for `CCc1c(C)[nH]c2c1C(=O)C(CN1CCOCC1)CC2.Cl` (stereo not given) [MOLINDONE HYDROCHLORIDE], the Hepatotoxicity result is reported as “DILI positive (training set)”.
Consider `C[C@@H]1C[C@H]2[C@@H]3CCC4=CC(=O)C=C[C@]4(C)[C@@]3(Cl)[C@@H](O)C[C@]2(C)[C@@]1(OC(=O)c1ccco1)C(=O)CCl` [MOMETASONE FUROATE], for which the Hepatotoxicity entry is listed as “DILI negative (test set)”.
Take `C[C@H]1C(=O)O[C@@H]2CCN3CC=C(COC(=O)[C@](C)(O)[C@]1(C)O)[C@H]23` [MONOCROTALINE]: the Hepatotoxicity entry is recorded as “DILI positive (training set)”.
For the compound `CC(C)(O)c1ccccc1CC[C@@H](SCC1(CC(=O)O)CC1)c1cccc(/C=C/c2ccc3ccc(Cl)cc3n2)c1` [MONTELUKAST], the Hepatotoxicity result was “DILI negative (training set)”.
The same measure, in the same setting: the same measure for `CCOC(=O)Nc1ccc2c(c1)N(C(=O)CCN1CCOCC1)c1ccccc1S2.Cl` [MORICIZINE HYDROCHLORIDE]: “DILI positive (test set)”.
With `CO[C@@]1(NC(=O)C(C(=O)[O-])c2ccc(O)cc2)C(=O)N2C(C(=O)[O-])=C(CSc3nnnn3C)CO[C@@H]21.[Na+].[Na+]` (stereo not given in full) [MOXALACTAM DISODIUM], the Hepatotoxicity result is “DILI negative (test set)”.
Turning to `CN(C)N=O` [N-NITROSODIMETHYLAMINE], the Hepatotoxicity result was “DILI positive (test set)”.
`CC(C)(C)NCC(O)COc1cccc2c1CC(O)C(O)C2` (stereo not given) [NADOLOL]: the Hepatotoxicity result is “DILI negative (training set)”.
With `CCOc1ccc2ccccc2c1C(=O)N[C@@H]1C(=O)N2[C@@H]1SC(C)(C)[C@@H]2C(=O)[O-].O.[Na+]` [NAFCILLIN SODIUM], the Hepatotoxicity result was “DILI negative (test set)”.
On to `CCn1cc(C(=O)O)c(=O)c2ccc(C)nc21` [NALIDIXIC ACID], for which the Hepatotoxicity result is “DILI positive (training set)”.
On to `O=C1CC[C@@]2(O)[C@H]3Cc4ccc(O)c5c4[C@@]2(CCN3CC2CC2)[C@H]1O5` [NALTREXONE], for which the Hepatotoxicity result is “DILI positive (training set)”.
As for `CCc1nn(CCCN2CCN(c3cccc(Cl)c3)CC2)c(=O)n1CCOc1ccccc1` [NEFAZODONE], the Hepatotoxicity entry is listed as “DILI positive (test set)”.
On the same count and under the same terms, the same measure for `COC(=O)C1=C(C)NC(C)=C(C(=O)OCCN(C)Cc2ccccc2)C1c1cccc([N+](=O)[O-])c1.Cl` (stereo not given) [NICARDIPINE HYDROCHLORIDE]: “DILI positive (training set)”; for `COC(=O)C1=C(C)NC(C)=C(C(=O)OC)C1c1ccccc1[N+](=O)[O-]` [NIFEDIPINE]: “DILI positive (training set)”; for `COCCOC(=O)C1=C(C)NC(C)=C(C(=O)OC(C)C)C1c1cccc([N+](=O)[O-])c1` (stereo not given) [NIMODIPINE]: “DILI positive (training set)”.
Still for that read-out and setting: the same measure for `COC(=O)C1=C(C)NC(C)=C(C(=O)OCC(C)C)C1c1ccccc1[N+](=O)[O-]` (stereo not given) [NISOLDIPINE]: “DILI negative (training set)”; for `COC(=O)Nc1nc2ccc(C(=O)c3cccs3)cc2[nH]1` [NOCODAZOLE]: “DILI negative (training set)”; for `CN1Cc2c(N)cccc2C(c2ccccc2)C1` (stereo not given) [NOMIFENSINE]: “DILI positive (training set)”.
Still for that read-out and setting: the same measure for `CO[C@@H]1[C@@H](OC(N)=O)[C@@H](O)[C@H](Oc2ccc3c(O)c(NC(=O)c4ccc(O)c(CC=C(C)C)c4)c(=O)oc3c2C)OC1(C)C` [NOVOBIOCIN]: “DILI positive (training set)”; for `CCCCC(CC)COC(=O)C=Cc1ccc(OC)cc1` (stereo not given) [OCTINOXATE]: “DILI positive (test set)”.
Regarding `CCCc1nc(C(C)(C)O)c(C(=O)O)n1Cc1ccc(-c2ccccc2-c2nnn[nH]2)cc1` [OLMESARTAN], the Hepatotoxicity entry is “DILI negative (test set)”.
Turning to `Cc1ccccc1C(OCCN(C)C)c1ccccc1.O=C(O)CC(O)(CC(=O)O)C(=O)O` (stereo not given) [ORPHENADRINE CITRATE], the Hepatotoxicity entry is recorded as “DILI negative (training set)”.
With `O=C(O)CCc1nc(-c2ccccc2)c(-c2ccccc2)o1` [OXAPROZIN], the Hepatotoxicity result was “DILI positive (test set)”.
Same read-out and setting: the same measure for `CCCOc1ccc2nc(NC(=O)OC)[nH]c2c1` [OXIBENDAZOLE]: “DILI positive (training set)”; for `CC[N+](C)(CC)CCOC(=O)C(O)(c1ccccc1)C1CCCCC1` (stereo not given) [OXYPHENONIUM]: “DILI negative (training set)”; for `NCCC(O)(P(=O)(O)O)P(=O)(O)O` [PAMIDRONIC ACID]: “DILI negative (training set)”.
On the same count and under the same terms, the same measure for `C#CCN(C)Cc1ccccc1` [PARGYLINE]: “DILI negative (test set)”; for `NC[C@@H]1O[C@H](O[C@H]2[C@@H](O)[C@H](O[C@@H]3[C@@H](O)[C@H](N)C[C@H](N)[C@H]3O[C@H]3O[C@H](CO)[C@@H](O)[C@H](O)[C@H]3N)O[C@@H]2CO)[C@H](N)[C@@H](O)[C@@H]1O.O=S(=O)(O)O` [PAROMOMYCIN SULFATE]: “DILI negative (training set)”; for `Fc1ccc([C@@H]2CCNC[C@H]2COc2ccc3c(c2)OCO3)cc1` [PAROXETINE]: “DILI negative (training set)”.
With `NC1=NC(=O)C(c2ccccc2)O1` (stereo not given) [PEMOLINE], the Hepatotoxicity entry is reported as “DILI positive (test set)”.
On to `CC(C)(C)NC[C@H](O)COc1ccccc1C1CCCC1.CC(C)(C)NC[C@H](O)COc1ccccc1C1CCCC1.O=S(=O)(O)O` [PENBUTOLOL SULFATE], for which the Hepatotoxicity result is “DILI positive (test set)”.
Take `CC1(C)S[C@@H]2[C@H](NC(=O)Cc3ccccc3)C(=O)N2[C@H]1C(=O)[O-].[Na+]` [PENICILLIN G SODIUM]: the Hepatotoxicity result is reported as “DILI positive (training set)”.
The same measure, in the same setting: the same measure for `C1CCC(C(CC2CCCCN2)C2CCCCC2)CC1` (stereo not given) [PERHEXILINE]: “DILI positive (training set)”.
As to `CC1(C)C(C=C(Cl)Cl)C1C(=O)OCc1cccc(Oc2ccccc2)c1` (stereo not given) [PERMETHRIN], the Hepatotoxicity result was “DILI negative (test set)”.
Turning to `CCOc1ccc(NC(C)=O)cc1` [PHENACETIN], the Hepatotoxicity entry is given as “DILI positive (training set)”.
As for `Cl.Nc1ccc(/N=N/c2ccccc2)c(N)n1` [PHENAZOPYRIDINE HYDROCHLORIDE], the Hepatotoxicity result is “DILI positive (training set)”.
On the same count and under the same terms, the same measure for `c1ccc2c(c1)Nc1ccccc1S2` [PHENOTHIAZINE]: “DILI positive (test set)”; for `CC(COc1ccccc1)N(CCCl)Cc1ccccc1.Cl` (stereo not given) [PHENOXYBENZAMINE HYDROCHLORIDE]: “DILI negative (training set)”; for `CS(=O)(=O)O.Cc1ccc(N(CC2=NCCN2)c2cccc(O)c2)cc1` [PHENTOLAMINE MESYLATE]: “DILI positive (training set)”.
Consider `S=C=Nc1ccccc1` [PHENYLISOTHIOCYANATE], for which the Hepatotoxicity entry is “DILI positive (test set)”.
As to `CC(N)C(O)c1ccccc1.Cl` (stereo not given) [PHENYLPROPANOLAMINE HYDROCHLORIDE], the Hepatotoxicity result is “DILI negative (training set)”.

The same series, now with this note: Liver.
As to `CC1(C)S[C@@H]2[C@H](NC(=O)[C@H](NC(=O)N3CCN(S(C)(=O)=O)C3=O)c3ccccc3)C(=O)N2[C@H]1C(=O)[O-].[Na+]` [MEZLOCILLIN SODIUM], the Hepatotoxicity result is given as “DILI positive (test set)”.
On the same count and under the same terms, the same measure for `COc1ccc2cc([C@H](C)C(=O)O)ccc2c1` [NAPROXEN]: “DILI negative (test set)”.
For `O=C1CN(/N=C/c2ccc([N+](=O)[O-])o2)C(=O)N1` [NITROFURANTOIN], the Hepatotoxicity result is “DILI positive (test set)”.
For the compound `C#CC1(O)CC[C@H]2[C@@H]3CCC4=CC(=O)CC[C@@H]4[C@H]3CC[C@@]21CC` (stereo not given in full) [NORGESTREL], the Hepatotoxicity result is “DILI positive (training set)”.
As for `CNCCC=C1c2ccccc2CCc2ccccc21.Cl` [NORTRIPTYLINE HYDROCHLORIDE], the Hepatotoxicity entry is recorded as “DILI positive (training set)”.
Turning to `O=S(=O)(O)O.Oc1cccc2cccnc12.Oc1cccc2cccnc12` [OXYQUINOLINE SULFATE], the Hepatotoxicity entry is on record as “DILI positive (test set)”.
On to `CC(=O)O[C@H]1C(=O)[C@@]2(C)[C@H]([C@H](OC(=O)c3ccccc3)[C@]3(O)C[C@H](OC(=O)[C@H](O)[C@@H](NC(=O)c4ccccc4)c4ccccc4)C(C)=C1C3(C)C)[C@]1(OC(C)=O)CO[C@@H]1C[C@@H]2O` [PACLITAXEL], for which the Hepatotoxicity entry is “DILI positive (test set)”.
With `NNCCc1ccccc1` [PHENELZINE], the Hepatotoxicity entry is “DILI negative (training set)”.
Take `O=C1NC(=O)C(c2ccccc2)(c2ccccc2)N1` [PHENYTOIN]: the Hepatotoxicity result was “DILI positive (training set)”.
